According to US20020065314A1, “COMPOSITIONS AND METHOD FOR STIMULATING HAIR GROWTH” (priority 1995, published 2002):
Entries after “also recorded” stand apart in the source; their conditions may differ. Read-outs that look alike come from different tables or passages of the source.

Tests used:
C57BL/KsJ db/+ mice [1] = experiment: Inhibition of n-butyl cyanoacrylate-stimulated hair growth by neutralizing antibodies; type: in vivo, mouse; settings: day 14, sites 2 and 3, 10 μl per site
Experimental: Forty mice of strain C57BL/KsJ db/+ eight weeks old were divided into four equal groups (A-D). The dorsal aspect of the mice were shaved, and five different sites on the dorsum were designated (sites 1-5). Each site was 5-6 mm^2. Animals of group A were treated topically at sites 1, 2 & 3 with n-butyl cyanoacrylate only (10 μl per site) formulated as Nexaband^R Liquid. Animals of group B were treated topically at sites 1, 2 & 3 with the same dose of n-butyl cyanoacrylate, but sites 1 and 3 subsequently received subcutaneous injections of either anti-TGF-β1 neutralizing antibody (1 μg per g of body weight) in PBS/0.1% BSA (at site 1), or PBS/0.1% BSA as a matched control (at site 3). Group C animals were treated as for Group B except that anti-EGF neutralizing antibody was injected at site 1 instead of anti-TGF-pi. […] Group D animals were shaved only and received no treatment.
Hair regeneration was documented by macroscopic observations supported by serial photographs of treatment sites. Histological observations were made on skin biopsies taken at frequent intervals ranging from 6 hours to 21 days post-treatment.

C57BL/KsJ db/+ mice [2] = experiment: Subdermal application by subcutaneous injection; type: in vivo, mouse
Experimental: In another example, 20 μl of n-butyl cyanoacrylate was applied subdermally by subcutaneous injection to a group of C57BL/KsJ db/+ mice.

[3] = test system: C57BL/KsJ db/+ and C57BL/KsJ db/db mice; experiment: Dose of n-butyl cyanoacrylate and response of hair growth (macroscopic score); type: in vivo, mouse
Experimental: The effect of n-butyl cyanoacrylate concentration on stimulation of hair growth was investigated as follows. Five mice of each strains C57BL/KsJ db/+ and C57BL/KsJ db/db were shaved on the dorsum, treated with a single topical application of either undiluted Nexaband^R Liquid (containing about 10 mg of n-butyl cyanoacrylate per 10 μl), or Nexaband^R Liquid diluted to 50% or 25% with vegetable oil. Hair growth was macroscopically scored at 49, 61 and 86 days after treatment.

[4] = test system: skin of mice (C57BL/KsJ db/+ and C57BL/KsJ db/db); experiment: Hair growth in organ culture of treated skin (ex vivo); design: species or system mouse
Experimental: The shaved dorsal skin of mice (C57BL/KsJ db/+ and C57BL/KsJ db/db) was treated with n-butyl cyanoacrylate by a single topical application at a dose of 10 mg cm^2. One hour later, the skin (0.5×1.0 cm) containing both treated and untreated areas was excised, rinsed in PBS, cultured in Dulbecco's Modified Eagle Medium (Gibco BRL, Gaithersburg, Md.) supplemented with 10% fetal bovine serum (HyClone Laboratories, Logan, Utah) at an atmosphere of […] and 5% CO2, 37° C. Hair growth was recorded by macroscopy.

[5] = test system: C57BL/KsJ db/+ and C57BL/KsJ db/db mice; experiment: Effect of isobutyl cyanoacrylate on hair growth, topical; type: in vivo, mouse; settings: C57BL/KsJ +/+, 10 μl cm^−2 topical
C57BL/KsJ db/+ mice [6] = settings: for hair growth on dorsum (photograph): 31 days post application
Experimental: The induction of hair loss following treatment with certain anticancer drugs, such as cyclophosphamide or doxorubicin, is well documented (A. Tierney & J. Taylor (1991) Nurs. Stand 5:29-31; R. R. Love, et al. (1989) Cancer 63:604-612; B. W. Cline (1984) Cancer Nurs. 7:221-228). The following experiment was performed to determine the effect of n-butyl cyanoacrylate on hair regrowth in mice pre-treated with cyclophosphamide or doxorubicin. Twenty mice of strain C57BL/KsJ db/+ were peritoneally injected with either cyclophosphamide in PBS (20 mg per kilogram of body weight) or Doxorubicin in PBS (2 mg per kilogram of body weight) for 10 consecutive days. Then a single 10 μl dose of n-butyl cyanoacrylate was applied topically to an area of the shaved dorsum of each animal. Control mice, which were injected with PBS alone, were treated similarly. The effects of hair regrowth were determined both by phototrichogram (macroscopic observation using photography) and by folliculogram (microscopic observation of histological changes in the treated and untreated skin).

[7] = 25%, C57BL/KsJ db/+, 49 days after treatment
[8] = 25%, C57BL/KsJ db/+, 61 days after treatment
[9] = 25%, C57BL/KsJ db/+, 86 days after treatment
[10] = 25%, C57BL/KsJ db/db, 49 days after treatment
[11] = 25%, C57BL/KsJ db/db, 61 days after treatment
[12] = 25%, C57BL/KsJ db/db, 86 days after treatment
[13] = 50%, C57BL/KsJ db/db, 49 days after treatment
[14] = 50%, C57BL/KsJ db/db, 61 days after treatment
[15] = 50%, C57BL/KsJ db/db, 86 days after treatment

Q: How did the “stimulation of hair growth at sites treated with n-butyl cyanoacrylate alone” value (C57BL/KsJ db/+ mice [1]) turn out when `C=C(C#N)C(=O)OCCCC` [n-butyl cyanoacrylate] was run?
A: The value was “clearly evident; also recorded: new hair growth was present”.

Q: And the “histology after subcutaneous injection” value (C57BL/KsJ db/+ mice [2]; 68 days after subcutaneous injection)?
A: The value was “development of new hair follicles in the treated site”.

Q: And the “histology after subcutaneous injection vs untreated site” value (C57BL/KsJ db/+ mice [2]; subcutaneous injection, 20 μl)?
A: Its value is “induces de novo hair follicle formation and the thickening of full-thickness skin”.

Q: And the “Number of Animals Exhibiting Hair Growth, Score 0” value (from here on “Number … Score 0”) [3, 7]?
A: Its value is 4.

Q: What about the “Number of Animals Exhibiting Hair Growth, Score 1+” value (shortened to “Number … Score 1+”) [3, 7] of the same compound?
A: The value was 1.

Q: And the “Number … Score 0” value [3, 8]?
A: The value was 2.

Q: And the “Number … Score 1+” value [3, 8]?
A: The value was 3.

Q: And the “Number … Score 0” value [3, 9]?
A: Its value is 3.

Q: And the “Number … Score 1+” value [3, 9]?
A: Its value is 2.

Q: And the “Number … Score 0” value [3, 10]?
A: Its value is 2.

Q: And the “Number of Animals Exhibiting Hair Growth, Score 2+” value (shortened to “Number … Score 2+”) [3, 10]?
A: Its value is 2.

Q: And the “Number of Animals Exhibiting Hair Growth, Score 3+” value (shortened to “Number … Score 3+”) [3, 10]?
A: The value was 1.

Q: What about the “Number … Score 0” value [3, 11] of the same compound?
A: The value was 2.

Q: What about the “Number … Score 1+” value [3, 11] of the same compound?
A: The value was 1.

Q: And the “Number … Score 2+” value [3, 11]?
A: The value was 1.

Q: And the “Number … Score 3+” value [3, 11]?
A: The value was 1.

Q: What about the “Number … Score 2+” value [3, 12] of the same compound?
A: The value was 3.

Q: And the “Number … Score 3+” value [3, 12]?
A: The value was 2.

Q: What about the “Number … Score 2+” value [3, 13] of the same compound?
A: The value was 2.

Q: What about the “Number … Score 3+” value [3, 13] of the same compound?
A: Its value is 3.

Q: And the “Number … Score 2+” value [3, 14]?
A: Its value is 1.

Q: And the “Number … Score 3+” value [3, 14]?
A: Its value is 4.

Q: And the “Number … Score 2+” value [3, 15]?
A: The value was 2.

Q: What about the “Number … Score 3+” value [3, 15] of the same compound?
A: Its value is 3.

Q: What about the “Number … Score 3+” value ([3]; 100% (10 mg/10 μl), C57BL/KsJ db/+, 49 days after treatment) of the same compound?
A: The value was 5.

Q: And the “Number … Score 3+” value ([3]; 100% (10 mg/10 μl), C57BL/KsJ db/+, 61 days after treatment)?
A: The value was 5.

Q: And the “Number … Score 3+” value ([3]; 100% (10 mg/10 μl), C57BL/KsJ db/+, 86 days after treatment)?
A: The value was 5.

Q: And the “Number … Score 3+” value ([3]; 100% (10 mg/10 μl), C57BL/KsJ db/db, 49 days after treatment)?
A: The value was 5.

Q: What about the “Number … Score 3+” value ([3]; 100% (10 mg/10 μl), C57BL/KsJ db/db, 61 days after treatment) of the same compound?
A: Its value is 5.

Q: And the “Number … Score 3+” value ([3]; 100% (10 mg/10 μl), C57BL/KsJ db/db, 86 days after treatment)?
A: Its value is 5.

Q: And the “dose dependence of induced hair growth” value ([3]; undiluted, 50%, 25%)?
A: The value was “dose-dependent”.

Q: What about the “hair growth in organ culture (photograph)” value ([4]; 14 days in organ culture after treatment) of the same compound?
A: The value was “hair growth is apparent in the treated area”.

Q: And the “time to which hair growth lasted (end of the experiment)” value ([4]; organ culture, post treatment)?
A: Its value is no less than 25 days.

Q: And the “time at which hair growth in the treated area was observed” value ([4]; organ culture, single topical application 10 mg cm^2 one hour before excision, post treatment)?
A: The value was 7 to 12 days.

Q: And the Hair growth [5]?
A: Its Hair growth is 3+ (high hair regeneration with an area larger than 50% of the treated area).

Q: And the “time new hair remained (until sacrifice)” value (C57BL/KsJ db/+ mice [6]; animals pre-treated with cyclophosphamide, after treatment)?
A: Its value is no less than 335 days.

Q: And the “time of growing to full length” value (C57BL/KsJ db/+ mice [6]; mice pre-treated with cyclophosphamide, doxorubicin and PBS, post treatment)?
A: Its value is 15 to 18 days.

Q: And the “beginning of hair regrowth in treated areas” value (C57BL/KsJ db/+ mice [6]; mice pre-treated with cyclophosphamide, doxorubicin and PBS, single 10 μl topical dose, post treatment)?
A: Its value is 8 to 11 days.

Q: What about the “hair growth on dorsum (photograph)” value (C57BL/KsJ db/+ mice [6]; pre-treated with cyclophosphamide) of the same compound?
A: Its value is “profound growth of new unpigmented gray hairs in the treated area”.

Q: And the “hair growth on dorsum (photograph)” value (C57BL/KsJ db/+ mice [6]; pre-treated with doxorubicin)?
A: The value was “profound growth of hair with normal pigmentation in the treated area”.
